Laboratory results: patent US12599647B2, “Peptide amide composition and preparation method therefor” (Xizang Haisco Pharmaceutical Co., Ltd., priority 2019, dated 2026)
Several values for one entry are separate records, joined by “and”; a condition that tells them apart may be missing. Identical values can stand only once.

Assays:
Assay type in all cases: physicochemical
[1] = Related substances in compound II solutions at pH range 3-5.5 (Table 2); details: aqueous solution, pH adjusted with glacial acetic acid; 40°C±2°C, 10 days
Method: (§1) Considering the operability of industrial production, we examined the stability of solutions at a pH range of 3-5.5. 750 ml of water for injection was measured and taken; nitrogen was charged beneath the surface of the liquid for about 20 min; and the water temperature was controlled to be 50° C. or less. 37.5 mg of compound II was weighed, added to the above-mentioned water for injection and stirred to dissolution and clarification to obtain solution (1). Solution (1) was adjusted with glacial acetic acid (source: Chengdu Kelong Chemical Co., Ltd.) to different pH values, and aqueous solutions containing compound II at different pH values were obtained. The aqueous solutions were placed under the conditions of 40° C.±2° C. for 10 days, and the performance of related substances in the solutions at different pH values was examined, with data shown in Table 2.

[2] = Related substances in compound II solutions at different pH values (Table 1); details: aqueous solutions, pH adjusted with glacial acetic acid or tartaric acid; 40°C±2°C, 10 days
Method: as §1, with “750” for “Considering the operability of industrial production, we examined the stability of solutions at a pH range of 3-5.5. 750”, “Ltd.) and tartaric acid” for “Ltd.)”, “values, respectively,” for “values,”, “examined (including the solution at a pH value not being adjusted),” for “examined,”, “1.” for “2.”

[3] = Related substances of formulation solutions for injection after high temperature acceleration at 40°C; details: compound II raw material (stored refrigerated 2°C-8°C), control, 0 days
Method: The sample of Formulation 1 solution for injection was placed under the conditions of 40° C.±2° C. for 5 days; compound II raw material (stored under refrigerated conditions of 2° C.-8° C.) was used as a control; and changes of related substances in the sample were examined, with data shown in Table 3.
Formulation 2 solution for injection was placed under the conditions of 40° C. 2° C. for 5 days; compound II raw material (stored under refrigerated conditions of 2° C.-8° C.) was used as a control; and changes of related substances in the sample were examined, with data shown in Table 4.
Formulation 3 solution for injection was placed under the conditions of 40° C. 2° C. for 5 days; compound II raw material (stored under refrigerated conditions of 2° C.-8° C.) was used as a control; and changes of related substances in the sample were examined, with data shown in Table 5.
Formulation 4 solution for injection was placed under the conditions of 40° C. 2° C. for 9 days; compound II raw material (stored under refrigerated conditions of 2° C.-8° C.) was used as a control; and changes of related substances in the sample were examined, with data shown in Table 6.
Formulation 5 solution for injection was placed under the conditions of 40° C. […]

CC(=O)N1CC2(CCN(C(=O)[C@@H](CCCCN)NC(=O)[C@@H](CC(C)C)NC(=O)[C@@H](Cc3ccccc3)NC(=O)[C@H](N)Cc3ccccc3)CC2)C1 [Compound II]
pH range at which the product is stable [1]: 3-5.5
pH value of best stability [2]: about 4
Total impurity (%) [3]: 1.098% and 1.238%
